In patent publication US20120029018A1, “9-SUBSTITUTED PHENANTHRENE BASED TYLOPHORINE DERIVATIVES” (priority 2008, published 2012):
pIC50: −log10 of the molar value. Converted amounts (≈) assume the structure as drawn. “And” between values parts separate entries of the source, which are not always exact repeats. Identical values can stand only once.

Assays:
[1] = system: KB-VIN (an MDR KB subline); assay: In vitro anticancer activity against KB-VIN cells; type: cell-based, human; conditions: for IC50 KBvin: KBvin cells
A549 (lung) = assay: In vitro anticancer activity against A549 cells; type: cell-based, human; conditions: for IC50 A549: A549 cells
DU-145 (prostate) = assay: In vitro anticancer activity against DU-145 cells; type: cell-based, human; conditions: for IC50 DU145: DU145 cells
KB (nasopharyngeal) = assay: In vitro anticancer activity against KB cells; type: cell-based, human; conditions: for IC50 KB: KB cells
[2] = system: panel of human tumor cell lines including KB, A549, DU-145 and KB-VIN; assay: In vitro anticancer activity, panel as a whole; type: cell-based; conditions: for IC50 values across the panel: summary of Table 1
[3] = system: cyclin B1 and cyclin D1 protein; assay: Cyclin protein levels; type: cell-based
Source text: (§1) The reciprocal recruitment of RelA and RelB on COX-2 promoter region led to the downregulation of transcriptional activity. […] PBT-1 may be a good drug candidate for anticancer chemotherapy.

[4] = system: Akt activation, RelA (p65), NF-κB target genes; assay: Akt / NF-κB signaling (gels, FIG. 2); type: cell-based
Source text: as §1

lung cancer cells = assay: Colony formation of lung cancer cells in vitro; type: cell-based; conditions: FIG. 1, listed as PBT-1
Source text: as §1

CL1-0 = assay: Cell cycle distribution in CL1-0 cells; type: cell-based
Source text: as §1

[5] = system: apoptosis pathway, MAPK signaling, NF-κB pathway, focal adhesion; assay: DNA microarray and pathway analysis; type: cell-based
Source text: as §1

[6] = system: panel of human tumor cell lines including KB, A549, DU-145 and KB-VIN; conditions: four human cancer cell lines including MDR KB-VIN; previous research (refs 6,7); read-out: IC50 against four types of human cancer cell lines; cited from earlier work

SMILES: COc1ccc2c(CN3CCCC(CN)C3)cc3cc4c(cc3c2c1)OCO4.Cl.Cl (racemic) [Compound 7]
- IC50 KBvin [1]: 0.38 µg/mL
- IC50 A549 (A549 (lung)): 0.28 µg/mL
- IC50 DU145 (DU-145 (prostate)): 0.37 µg/mL
- IC50 KB (KB (nasopharyngeal)): 0.33 µg/mL

SMILES: COc1ccc2c(CN3CCC(NC(=O)OC(C)(C)C)CC3)cc3cc4c(cc3c2c1)OCO4 [Compound 11]
- IC50 KBvin [1]: 0.49 µg/mL (≈ 1.05 µM)
- IC50 A549 (A549 (lung)): 0.41 µg/mL (≈ 0.883 µM)
- IC50 DU145 (DU-145 (prostate)): 0.43 µg/mL (≈ 0.926 µM)
- IC50 KB (KB (nasopharyngeal)): 0.40 µg/mL (≈ 0.861 µM)

SMILES: COc1ccc2c(CN3CCC(C(F)(F)F)CC3)cc3cc4c(cc3c2c1)OCO4 [Compound 13]
- IC50 KBvin [1]: 3.12 µg/mL (≈ 7.47 µM)
- IC50 A549 (A549 (lung)): 2.74 µg/mL (≈ 6.56 µM)
- IC50 DU145 (DU-145 (prostate)): 5.24 µg/mL (≈ 12.6 µM)
- IC50 KB (KB (nasopharyngeal)): 3.88 µg/mL (≈ 9.3 µM)

SMILES: COc1ccc2c(CN3CCC(=O)CC3)cc3cc4c(cc3c2c1)OCO4 [Compound 15]
- IC50 values across the panel [2]: ~0.04 µg/mL (≈ 0.11 µM)
- IC50 KBvin [1]: 0.05 µg/mL (≈ 0.138 µM)
- IC50 A549 (A549 (lung)): 0.04 µg/mL (≈ 0.11 µM)
- IC50 DU145 (DU-145 (prostate)): 0.04 µg/mL (≈ 0.11 µM)
- IC50 KB (KB (nasopharyngeal)): 0.04 µg/mL (≈ 0.11 µM)

SMILES: COc1ccc2c(CN3CCCC(CO)C3)cc3cc4c(cc3c2c1)OCO4 (stereo not drawn) [Compound 23]
- IC50 A549 (A549 (lung)): 0.05 µg/mL (≈ 0.132 µM)
- IC50 DU145 (DU-145 (prostate)): 0.06 µg/mL (≈ 0.158 µM)
- IC50 KB (KB (nasopharyngeal)): 0.07 µg/mL (≈ 0.184 µM)

SMILES: COc1ccc2c(CN3CCCC(=O)C3)cc3cc4c(cc3c2c1)OCO4 [Compound 22]
- decrease of inhibitory potency, oxo group at C-3′ (15 vs. 22) ([2]; vs compound 15): about 8 fold
- IC50 A549 (A549 (lung)): 0.29 µg/mL (≈ 0.798 µM)
- IC50 DU145 (DU-145 (prostate)): 0.39 µg/mL (≈ 1.07 µM)
- IC50 KB (KB (nasopharyngeal)): 0.30 µg/mL (≈ 0.826 µM)

SMILES: COC(=O)C1CCCN(Cc2cc3cc4c(cc3c3cc(OC)ccc23)OCO4)C1 (stereo not drawn) [Compound 19]
- IC50 KBvin [1]: 0.58 µg/mL (≈ 1.42 µM)
- IC50 A549 (A549 (lung)): 0.53 µg/mL (≈ 1.3 µM)
- IC50 DU145 (DU-145 (prostate)): 0.61 µg/mL (≈ 1.5 µM)
- IC50 KB (KB (nasopharyngeal)): 0.53 µg/mL (≈ 1.3 µM)

SMILES: COC(=O)C1CN(Cc2cc3cc4c(cc3c3cc(OC)ccc23)OCO4)CCC1=O (racemic) [Compound 16]
- IC50 KBvin [1]: 0.83 µg/mL (≈ 1.97 µM)
- IC50 A549 (A549 (lung)): 0.58 µg/mL (≈ 1.38 µM)
- IC50 DU145 (DU-145 (prostate)): 0.78 µg/mL (≈ 1.85 µM)
- IC50 KB (KB (nasopharyngeal)): 0.53 µg/mL (≈ 1.26 µM)

SMILES: COC(=O)C1CCCN(Cc2cc3cc4c(cc3c3cc(OC)ccc23)OCO4)C1 (stereo not drawn) [Compound 18]
- IC50 KBvin [1]: 1.24 µg/mL (≈ 3.04 µM)
- IC50 A549 (A549 (lung)): 0.76 µg/mL (≈ 1.87 µM)
- IC50 DU145 (DU-145 (prostate)): 1.09 µg/mL (≈ 2.68 µM)
- IC50 KB (KB (nasopharyngeal)): 0.79 µg/mL (≈ 1.94 µM)

SMILES: COc1ccc2c(CN3CCC(C#N)CC3)cc3cc4c(cc3c2c1)OCO4 [Compound 14]
- IC50 KBvin [1]: 0.43 µg/mL (≈ 1.15 µM)
- IC50 A549 (A549 (lung)): 0.33 µg/mL (≈ 0.881 µM)
- IC50 DU145 (DU-145 (prostate)): 0.41 µg/mL (≈ 1.09 µM)
- IC50 KB (KB (nasopharyngeal)): 0.42 µg/mL (≈ 1.12 µM)

SMILES: COc1ccc2c(CN3CCCC(CNC(=O)OC(C)(C)C)C3)cc3cc4c(cc3c2c1)OCO4 (racemic) [Compound 8]
- IC50 KBvin [1]: 0.62 µg/mL (≈ 1.3 µM)
- IC50 A549 (A549 (lung)): 0.57 µg/mL (≈ 1.19 µM)
- IC50 DU145 (DU-145 (prostate)): 0.52 µg/mL (≈ 1.09 µM)
- IC50 KB (KB (nasopharyngeal)): 0.53 µg/mL (≈ 1.11 µM)

SMILES: COc1ccc2c(CN3CCCC(CO)C3)cc3cc4c(cc3c2c1)OCO4 (stereo not drawn) [Compound 24]
- IC50 A549 (A549 (lung)): 0.07 µg/mL (≈ 0.184 µM)
- IC50 DU145 (DU-145 (prostate)): 0.10 µg/mL (≈ 0.264 µM)
- IC50 KB (KB (nasopharyngeal)): 0.07 µg/mL (≈ 0.184 µM)

SMILES: COc1ccc2c(CN3CCCC(NC(=O)OC(C)(C)C)C3)cc3cc4c(cc3c2c1)OCO4 (stereo not drawn) [Compound 9]
- IC50 KBvin [1]: 8.40 µg/mL (≈ 18.1 µM)
- IC50 A549 (A549 (lung)): 6.77 µg/mL (≈ 14.6 µM)
- IC50 DU145 (DU-145 (prostate)): 8.00 µg/mL (≈ 17.2 µM)
- IC50 KB (KB (nasopharyngeal)): 6.43 µg/mL (≈ 13.8 µM)

SMILES: COc1ccc2c(CN3CCC(N)CC3)cc3cc4c(cc3c2c1)OCO4.Cl.Cl [Compound 12]
- IC50 KBvin [1]: 0.29 µg/mL
- IC50 A549 (A549 (lung)): 0.16 µg/mL
- IC50 DU145 (DU-145 (prostate)): 0.34 µg/mL
- IC50 KB (KB (nasopharyngeal)): 0.24 µg/mL

SMILES: COc1ccc2c(CN3CCC(O)CC3)cc3cc4c(cc3c2c1)OCO4 [Compound 21]
- IC50 values across the panel [2]: ~0.04 µg/mL and 0.03 to 0.04 µg/mL
- fold more active compared with compound 1 ([2]; vs compound 1): about 2 fold
- IC50 A549 (A549 (lung)): 0.03 µg/mL (≈ 0.0821 µM)
- IC50 DU145 (DU-145 (prostate)): 0.04 µg/mL (≈ 0.109 µM)
- IC50 KB (KB (nasopharyngeal)): 0.03 µg/mL (≈ 0.0821 µM)

SMILES: COc1ccc2c(CN3CCC(NS(C)(=O)=O)CC3)cc3cc4c(cc3c2c1)OCO4 [Compound 17]
- IC50 KBvin [1]: 0.48 µg/mL (≈ 1.08 µM)
- IC50 A549 (A549 (lung)): 0.45 µg/mL (≈ 1.02 µM)
- IC50 DU145 (DU-145 (prostate)): 0.45 µg/mL (≈ 1.02 µM)
- IC50 KB (KB (nasopharyngeal)): 0.29 µg/mL (≈ 0.655 µM)

SMILES: COc1ccc2c(CN3CCC(CNC(=O)OC(C)(C)C)CC3)cc3cc4c(cc3c2c1)OCO4 [Compound 25]
- IC50 A549 (A549 (lung)): 0.27 µg/mL (≈ 0.564 µM)
- IC50 DU145 (DU-145 (prostate)): 0.40 µg/mL (≈ 0.836 µM)
- IC50 KB (KB (nasopharyngeal)): 0.43 µg/mL (≈ 0.898 µM)

SMILES: COc1ccc2c(CN3CCCC(N)C3)cc3cc4c(cc3c2c1)OCO4.Cl.Cl (stereo not drawn) [Compound 10]
- IC50 KBvin [1]: 3.88 µg/mL
- IC50 A549 (A549 (lung)): 3.85 µg/mL
- IC50 DU145 (DU-145 (prostate)): 4.20 µg/mL
- IC50 KB (KB (nasopharyngeal)): 3.80 µg/mL

SMILES: COc1ccc2c(CN3CCC(CO)CC3)cc3cc4c(cc3c2c1)OCO4 [Compound 1]
- cyclin B1 and cyclin D1 protein level [3]: accumulation in dose- and time-dependent manners
- Akt activation [4]: suppress Akt activation
- expressions of NF-κB target genes [4]: downregulate the expressions of NF-κB target genes
- RelA (p65) degradation ([4]; via IκB kinase-α): accelerate RelA (p65) degradation
- IC50 ([1]; Homo sapiens, KBVIN, read-out: IC50 KBvin): 0.08 µg/mL (≈ 0.211 µM)
- IC50 (A549 (lung); Homo sapiens, A549, read-out: IC50 A549): 0.07 µg/mL (≈ 0.184 µM)
- colony formation of lung cancer cells (lung cancer cells): significantly suppressed colony formation
- G1 (%) (CL1-0; CL1-0, 2 Hr.): 53.7%
- G2/M (%) (CL1-0; CL1-0, 2 Hr.): 25.4%
- S (%) (CL1-0; CL1-0, 2 Hr.): 15.1%
- G1 (%) (CL1-0; CL1-0, 6 Hr.): 52.5%
- G2/M (%) (CL1-0; CL1-0, 6 Hr.): 24.3%
- S (%) (CL1-0; CL1-0, 6 Hr.): 15.8%
- G1 (%) (CL1-0; CL1-0, 12 Hr.): 41.7%
- G2/M (%) (CL1-0; CL1-0, 12 Hr.): 27.0%
- S (%) (CL1-0; CL1-0, 12 Hr.): 23.9%
- G1 (%) (CL1-0; CL1-0, 16 Hr.): 20.4%
- G2/M (%) (CL1-0; CL1-0, 16 Hr.): 33.6%
- S (%) (CL1-0; CL1-0, 16 Hr.): 34.1%
- G1 (%) (CL1-0; CL1-0, 24 Hr.): 16.6%
- G2/M (%) (CL1-0; CL1-0, 24 Hr.): 20.9%
- S (%) (CL1-0; CL1-0, 24 Hr.): 43.8%
- cell cycle arrest and apoptosis (CL1-0; Table 2): induced cell cycle G2/M arrest and apoptosis
- pathways activated [5]: activated the apoptosis pathway and mitogen-activated protein kinase signaling
- pathways suppressed [5]: suppressed the nuclear factor kappaB (NF-κB) pathway and focal adhesion
- IC50 (DU-145 (prostate); Homo sapiens, DU-145, read-out: IC50 DU145): 0.09 µg/mL (≈ 0.237 µM)
- IC50 (KB (nasopharyngeal); Homo sapiens, KB, read-out: IC50 KB): 0.07 µg/mL (≈ 0.184 µM)
- pIC50 [6]: ~7.10

SMILES: COc1ccc2c(CN3CCC(CN)CC3)cc3cc4c(cc3c2c1)OCO4.Cl.Cl [Compound 20]
- IC50 A549 (A549 (lung)): 0.22 µg/mL
- IC50 DU145 (DU-145 (prostate)): 0.16 µg/mL
- IC50 KB (KB (nasopharyngeal)): 0.12 µg/mL
